Key:
Cyperus iria = assay: Preemergence weed control under flooded paddy conditions, CYPIR (Rice Flatsedge); assay type: in vivo; settings: flooded paddy; for CYPIR: herbicidal effect rating 0-9, three to four weeks after treatment; on herbicidal effect rating, CYPIR: meaning of each grade not given here
[1] = test system: Oryza sativa, (L.) Tebonnet; assay: Rice tolerance to post-transplant applications under flooded paddy conditions (Example 187), ORYSAT (Rice, Tebonnet); settings: for ORYSAT: herbicidal effect rating 0-9, three to four weeks after treatment; on herbicidal effect rating ORYSAT: meaning of each grade not given here
[2] = test system: Echinochloa oryzoides (Ard.) Fritsch.; assay: Preemergence weed control under flooded paddy conditions, ECHORC (Watergrass (Calif.)); assay type: in vivo; settings: flooded paddy; for ECHORC: herbicidal effect rating 0-9, three to four weeks after treatment; on herbicidal effect rating, ECHORC: meaning of each grade not given here
[3] = test system: Cyperus serotinus, Rottb.; assay: Preemergence weed control under flooded paddy conditions, CYPSE (Flatsedge); assay type: in vivo; on herbicidal effect rating, CYPSE: meaning of each grade not given here
[4] = test system: Monochoria vaginalis, Presl.; assay: Preemergence weed control under flooded paddy conditions, MOOVA (Monochoria); assay type: in vivo; settings: flooded paddy; for MOOVA: herbicidal effect rating 0-9, three to four weeks after treatment; on herbicidal effect rating, MOOVA: meaning of each grade not given here
Sagittaria pygmaea, L. = assay: Preemergence weed control under flooded paddy conditions, SAGPY (Arrowhead (Pygmaea)); assay type: in vivo; settings: flooded paddy; for SAGPY: herbicidal effect rating 0-9, three to four weeks after treatment; on herbicidal effect rating, SAGPY: meaning of each grade not given here
[5] = Rate 0.0620 kg/ha, preemergence, rated 3-4 weeks after treatment
[6] = Rate 0.1250 kg/ha, preemergence, rated 3-4 weeks after treatment
[7] = Rate 0.2500 kg/ha, preemergence, rated 3-4 weeks after treatment
[8] = Rate 0.5000 kg/ha, preemergence, rated 3-4 weeks after treatment
[9] = Rate 0.0620 kg/ha, rated 3-4 weeks after treatment
[10] = Rate 0.1250 kg/ha, rated 3-4 weeks after treatment
[11] = Rate 0.2500 kg/ha, rated 3-4 weeks after treatment
[12] = 0.0320 kg/ha, preemergence, rated three to four weeks after treatment
[13] = 0.0620 kg/ha, preemergence, rated three to four weeks after treatment
[14] = 0.1250 kg/ha, preemergence, rated three to four weeks after treatment
[15] = 0.2500 kg/ha, preemergence, rated three to four weeks after treatment
[16] = Rate 0.0320 kg/ha, preemergence, rated three to four weeks after treatment
[17] = Rate 0.0620 kg/ha, preemergence, rated three to four weeks after treatment
[18] = Rate 0.1250 kg/ha, preemergence, rated three to four weeks after treatment
[19] = Rate 0.2500 kg/ha, preemergence, rated three to four weeks after treatment
[20] = Rate 0.0320 kg/ha, rated three to four weeks after treatment
[21] = Rate 0.0620 kg/ha, rated three to four weeks after treatment
[22] = Rate 0.1250 kg/ha, rated three to four weeks after treatment
[23] = Rate 0.2500 kg/ha, rated three to four weeks after treatment
[24] = Rate 0.0320 kg/ha, preemergence, rated 3-4 weeks after treatment
[25] = 0.0320 kg/ha, preemergence weeds
[26] = 0.0620 kg/ha, preemergence weeds
[27] = 0.1250 kg/ha, preemergence weeds
[28] = 0.2500 kg/ha, preemergence weeds
[29] = Rate 0.0320 kg/ha, preemergence weeds, rated three to four weeks after treatment
[30] = Rate 0.0620 kg/ha, preemergence weeds, rated three to four weeks after treatment
[31] = Rate 0.1250 kg/ha, preemergence weeds, rated three to four weeks after treatment
[32] = Rate 0.2500 kg/ha, preemergence weeds, rated three to four weeks after treatment

## CCOC(=O)c1ccc(NC(=O)C(C)Oc2ccc(C)cc2-c2nsc3ccc(-n4c(=O)cc(C(F)(F)F)n(C)c4=O)cc23)cc1 (stereo not shown) [Example 541, Benzoic acid, p-{2-{{2-{5-[3,6-dihydro-3-methyl-2,6-dioxo-4-(trifluoromethyl)-1(2H)-pyrimidinyl]-1,2-benzisothiazol-3-yl}-p-tolyl}oxy}propionamido}-, ethyl ester]
Cyperus iria; [5]
  herbicidal effect rating, CYPIR: 3.0
Cyperus iria; [6]
  herbicidal effect rating, CYPIR: 4.0
Cyperus iria; [7]
  herbicidal effect rating, CYPIR: 6.0
Cyperus iria; [8]
  herbicidal effect rating, CYPIR: 9.0
[1]; [9]
  herbicidal effect rating ORYSAT: 0.0
[1]; [10]
  herbicidal effect rating ORYSAT: 0.0
[1]; [11]
  herbicidal effect rating ORYSAT: 0.0
[1]; Rate 0.5000 kg/ha, rated 3-4 weeks after treatment
  herbicidal effect rating ORYSAT: 2.0
[2]; [5]
  herbicidal effect rating, ECHORC: 0.0
[2]; [6]
  herbicidal effect rating, ECHORC: 0.0
[2]; [7]
  herbicidal effect rating, ECHORC: 4.0
[2]; [8]
  herbicidal effect rating, ECHORC: 6.0
[3]; [5]
  herbicidal effect rating, CYPSE: 0.0
[3]; [6]
  herbicidal effect rating, CYPSE: 0.0
[3]; [7]
  herbicidal effect rating, CYPSE: 0.0
[3]; [8]
  herbicidal effect rating, CYPSE: 0.0
[4]; [5]
  herbicidal effect rating, MOOVA: 9.0
[4]; [6]
  herbicidal effect rating, MOOVA: 9.0
[4]; [7]
  herbicidal effect rating, MOOVA: 9.0
[4]; [8]
  herbicidal effect rating, MOOVA: 9.0
Sagittaria pygmaea, L.; [5]
  herbicidal effect rating, SAGPY: 0.0
Sagittaria pygmaea, L.; [6]
  herbicidal effect rating, SAGPY: 0.0
Sagittaria pygmaea, L.; [7]
  herbicidal effect rating, SAGPY: 0.0
Sagittaria pygmaea, L.; [8]
  herbicidal effect rating, SAGPY: 0.0

## Cn1c(C(F)(F)F)cc(=O)n(-c2ccc3snc(C(=O)NS(=O)(=O)/C=C/c4ccccc4)c3c2)c1=O [Example 501, 1,2-Benzisothiazole-3-carboxamide, 5-[3,6-dihydro-3-methyl-2,6-dioxo-4-(trifluoromethyl)-1(2H)-pyrimidinyl]-N-(styrylsulfonyl)-, (E)-]
Cyperus iria; [12]
  CYPIR herbicidal rating: 0.0
Cyperus iria; [13]
  CYPIR herbicidal rating: 2.0
Cyperus iria; [14]
  CYPIR herbicidal rating: 4.0
Cyperus iria; [15]
  CYPIR herbicidal rating: 6.0
[1]; 0.0320 kg/ha, rated three to four weeks after treatment
  ORYSAT herbicidal rating (rice tolerance): 0.0
[1]; 0.0620 kg/ha, rated three to four weeks after treatment
  ORYSAT herbicidal rating (rice tolerance): 1.0
[1]; 0.1250 kg/ha, rated three to four weeks after treatment
  ORYSAT herbicidal rating (rice tolerance): 3.0
[1]; 0.2500 kg/ha, rated three to four weeks after treatment
  ORYSAT herbicidal rating (rice tolerance): 4.0
[2]; [12]
  ECHORC herbicidal rating: 4.0
[2]; [13]
  ECHORC herbicidal rating: 5.0
[2]; [14]
  ECHORC herbicidal rating: 5.0
[2]; [15]
  ECHORC herbicidal rating: 7.0
[3]; [12]
  CYPSE herbicidal rating: 0.0
[3]; [13]
  CYPSE herbicidal rating: 0.0
[3]; [14]
  CYPSE herbicidal rating: 3.0
[3]; [15]
  CYPSE herbicidal rating: 5.0
[4]; [12]
  MOOVA herbicidal rating: 6.0
[4]; [13]
  MOOVA herbicidal rating: 6.0
[4]; [14]
  MOOVA herbicidal rating: 7.0
[4]; [15]
  MOOVA herbicidal rating: 9.0
Sagittaria pygmaea, L.; [12]
  SAGPY herbicidal rating: 2.0
Sagittaria pygmaea, L.; [13]
  SAGPY herbicidal rating: 3.0
Sagittaria pygmaea, L.; [14]
  SAGPY herbicidal rating: 5.0
Sagittaria pygmaea, L.; [15]
  SAGPY herbicidal rating: 6.0

## Cc1ccc(C=C(C#N)c2nsc3ccc(-n4c(=O)cc(C(F)(F)F)n(C)c4=O)cc23)cc1 [Example 597, 1,2-Benzisothiazole-3-acetonitrile, 5-[3,6-dihydro-3-methyl-2,6-dioxo-4-(trifluoromethyl)-1(2H)-pyrimidinyl]-alpha-(p-methylbenzylidene)-]
Cyperus iria; [16]
  herbicidal effect rating, CYPIR: 0.0
Cyperus iria; [17]
  herbicidal effect rating, CYPIR: 0.0
Cyperus iria; [18]
  herbicidal effect rating, CYPIR: 0.0
Cyperus iria; [19]
  herbicidal effect rating, CYPIR: 0.0
[1]; [20]
  herbicidal effect rating ORYSAT: 0.0
[1]; [21]
  herbicidal effect rating ORYSAT: 0.0
[1]; [22]
  herbicidal effect rating ORYSAT: 0.0
[1]; [23]
  herbicidal effect rating ORYSAT: 0.0
[2]; [16]
  herbicidal effect rating, ECHORC: 4.0
[2]; [17]
  herbicidal effect rating, ECHORC: 6.0
[2]; [18]
  herbicidal effect rating, ECHORC: 7.0
[2]; [19]
  herbicidal effect rating, ECHORC: 9.0
[3]; [16]
  herbicidal effect rating, CYPSE: 0.0
[3]; [17]
  herbicidal effect rating, CYPSE: 0.0
[3]; [18]
  herbicidal effect rating, CYPSE: 0.0
[3]; [19]
  herbicidal effect rating, CYPSE: 0.0
[4]; [17]
  herbicidal effect rating, MOOVA: 4.0
[4]; [19]
  herbicidal effect rating, MOOVA: 4.0
Sagittaria pygmaea, L.; [16]
  herbicidal effect rating, SAGPY: 0.0
Sagittaria pygmaea, L.; [17]
  herbicidal effect rating, SAGPY: 0.0
Sagittaria pygmaea, L.; [18]
  herbicidal effect rating, SAGPY: 0.0
Sagittaria pygmaea, L.; [19]
  herbicidal effect rating, SAGPY: 0.0

## Cc1nsc2ccc(-n3c(=O)cc(C(F)(F)F)n(CCF)c3=O)cc12 [Example 516, 2,4(1H,3H)-Pyrimidinedione, 1-(2-fluoroethyl)-3-(3-methyl-1,2-benzisothiazol-5-yl)-6-(trifluoromethyl)-]
Cyperus iria; [24]
  herbicidal effect rating, CYPIR: 0.0
Cyperus iria; [5]
  herbicidal effect rating, CYPIR: 0.0
Cyperus iria; [6]
  herbicidal effect rating, CYPIR: 0.0
Cyperus iria; [7]
  herbicidal effect rating, CYPIR: 2.0
[1]; Rate 0.0320 kg/ha, rated 3-4 weeks after treatment
  herbicidal effect rating ORYSAT: 0.0
[1]; [9]
  herbicidal effect rating ORYSAT: 1.0
[1]; [10]
  herbicidal effect rating ORYSAT: 2.0
[1]; [11]
  herbicidal effect rating ORYSAT: 3.0
[2]; [24]
  herbicidal effect rating, ECHORC: 0.0
[2]; [5]
  herbicidal effect rating, ECHORC: 0.0
[2]; [6]
  herbicidal effect rating, ECHORC: 0.0
[2]; [7]
  herbicidal effect rating, ECHORC: 0.0
[3]; [24]
  herbicidal effect rating, CYPSE: 0.0
[3]; [5]
  herbicidal effect rating, CYPSE: 0.0
[3]; [6]
  herbicidal effect rating, CYPSE: 0.0
[3]; [7]
  herbicidal effect rating, CYPSE: 0.0
[4]; [24]
  herbicidal effect rating, MOOVA: 4.0
[4]; [5]
  herbicidal effect rating, MOOVA: 6.0
[4]; [6]
  herbicidal effect rating, MOOVA: 8.0
[4]; [7]
  herbicidal effect rating, MOOVA: 9.0
Sagittaria pygmaea, L.; [24]
  herbicidal effect rating, SAGPY: 0.0
Sagittaria pygmaea, L.; [5]
  herbicidal effect rating, SAGPY: 0.0
Sagittaria pygmaea, L.; [6]
  herbicidal effect rating, SAGPY: 0.0
Sagittaria pygmaea, L.; [7]
  herbicidal effect rating, SAGPY: 0.0

## Cn1c(C(F)(F)F)cc(=O)n(-c2ccc3snc(C(=O)SCc4ccccc4)c3c2)c1=O [Example 421, 1,2-Benzisothiazole-3-thiocarboxylic acid, 5-[3,6-dihydro-3-methyl-2,6-dioxo-4-(trifluoromethyl)-1(2H)-pyrimidinyl]-, S-benzyl ester]
Cyperus iria; [25]
  CYPIR: 2.0
Cyperus iria; [26]
  CYPIR: 6.0
Cyperus iria; [27]
  CYPIR: 8.0
Cyperus iria; [28]
  CYPIR: 9.0
[1]; 0.0320 kg/ha
  ORYSAT: 0.0
[1]; 0.0620 kg/ha
  ORYSAT: 0.0
[1]; 0.1250 kg/ha
  ORYSAT: 0.0
[1]; 0.2500 kg/ha
  ORYSAT: 2.0
[2]; [25]
  ECHORC: 5.0
[2]; [26]
  ECHORC: 5.0
[2]; [27]
  ECHORC: 7.0
[2]; [28]
  ECHORC: 9.0
[3]; 0.2500 kg/ha, preemergence weeds, herbicidal effect rating 0-9, three to four weeks after treatment
  CYPSE: 4.0
[4]; [25]
  MOOVA: 5.0
[4]; [26]
  MOOVA: 6.0
[4]; [27]
  MOOVA: 7.0
[4]; [28]
  MOOVA: 9.0
Sagittaria pygmaea, L.; [25]
  SAGPY: 0.0
Sagittaria pygmaea, L.; [26]
  SAGPY: 0.0
Sagittaria pygmaea, L.; [27]
  SAGPY: 0.0
Sagittaria pygmaea, L.; [28]
  SAGPY: 2.0

## CC(O)c1nsc2ccc(-n3c(=O)cc(C(F)(F)F)n(C)c3=O)cc12 (stereo not shown) [Example 308, 2,4(1H,3H)-Pyrimidinedione, 3-[3-(1-hydroxyethyl)-1,2-benzisothiazol-5-yl]-1-methyl-6-(trifluoromethyl)-]
Cyperus iria; [29]
  herbicidal effect rating, CYPIR: 0.0
Cyperus iria; [30]
  herbicidal effect rating, CYPIR: 0.0
Cyperus iria; [31]
  herbicidal effect rating, CYPIR: 0.0
Cyperus iria; [32]
  herbicidal effect rating, CYPIR: 0.0
[1]; [20]
  herbicidal effect rating ORYSAT: 5.0
[1]; [21]
  herbicidal effect rating ORYSAT: 5.0
[1]; [22]
  herbicidal effect rating ORYSAT: 6.0
[1]; [23]
  herbicidal effect rating ORYSAT: 7.0
[2]; [29]
  herbicidal effect rating, ECHORC: 5.0
[2]; [30]
  herbicidal effect rating, ECHORC: 5.0
[2]; [31]
  herbicidal effect rating, ECHORC: 6.0
[2]; [32]
  herbicidal effect rating, ECHORC: 9.0
[3]; [29]
  herbicidal effect rating, CYPSE: 0.0
[3]; [30]
  herbicidal effect rating, CYPSE: 0.0
[3]; [31]
  herbicidal effect rating, CYPSE: 3.0
[3]; [32]
  herbicidal effect rating, CYPSE: 9.0
[4]; [29]
  herbicidal effect rating, MOOVA: 0.0
[4]; [30]
  herbicidal effect rating, MOOVA: 0.0
[4]; [31]
  herbicidal effect rating, MOOVA: 0.0
[4]; [32]
  herbicidal effect rating, MOOVA: 0.0
Sagittaria pygmaea, L.; [29]
  herbicidal effect rating, SAGPY: 0.0
Sagittaria pygmaea, L.; [30]
  herbicidal effect rating, SAGPY: 0.0
Sagittaria pygmaea, L.; [31]
  herbicidal effect rating, SAGPY: 3.0
Sagittaria pygmaea, L.; [32]
  herbicidal effect rating, SAGPY: 9.0
